Results: article PMC2803762 (Molecules, 2008)

Test system: pig liver esterase (PLE; EC 3.1.1.1)
Assay: release of p-nitroaniline at […] nm, saturation curve
Format: biochemical, Sus scrofa
Conditions: PBS pH 7.7, 10% v/v DMSO, 25 °C, PLE 0.25 μg/mL, substrate 0.5-33 μM

- Km: 14 µM
Compound: CC(=O)Oc1cc(C)cc(C)c1C(C)(C)CC(=O)Nc1ccc([N+](=O)[O-])cc1 [compound 1, prochromophore 1]
